Reference: ChEMBL document CHEMBL3112442, “Anilino-monoindolylmaleimides as potent and selective JAK3 inhibitors” (Bioorg Med Chem Lett, 2014)

Tests used:
[1] = target: Non-receptor tyrosine-protein kinase TYK2 (Homo sapiens, UniProt P29597)
[2] = target: T1, Tyrosine-protein kinase JAK3 (Homo sapiens, UniProt P52333)
T1 sequence (P52333 whole entry): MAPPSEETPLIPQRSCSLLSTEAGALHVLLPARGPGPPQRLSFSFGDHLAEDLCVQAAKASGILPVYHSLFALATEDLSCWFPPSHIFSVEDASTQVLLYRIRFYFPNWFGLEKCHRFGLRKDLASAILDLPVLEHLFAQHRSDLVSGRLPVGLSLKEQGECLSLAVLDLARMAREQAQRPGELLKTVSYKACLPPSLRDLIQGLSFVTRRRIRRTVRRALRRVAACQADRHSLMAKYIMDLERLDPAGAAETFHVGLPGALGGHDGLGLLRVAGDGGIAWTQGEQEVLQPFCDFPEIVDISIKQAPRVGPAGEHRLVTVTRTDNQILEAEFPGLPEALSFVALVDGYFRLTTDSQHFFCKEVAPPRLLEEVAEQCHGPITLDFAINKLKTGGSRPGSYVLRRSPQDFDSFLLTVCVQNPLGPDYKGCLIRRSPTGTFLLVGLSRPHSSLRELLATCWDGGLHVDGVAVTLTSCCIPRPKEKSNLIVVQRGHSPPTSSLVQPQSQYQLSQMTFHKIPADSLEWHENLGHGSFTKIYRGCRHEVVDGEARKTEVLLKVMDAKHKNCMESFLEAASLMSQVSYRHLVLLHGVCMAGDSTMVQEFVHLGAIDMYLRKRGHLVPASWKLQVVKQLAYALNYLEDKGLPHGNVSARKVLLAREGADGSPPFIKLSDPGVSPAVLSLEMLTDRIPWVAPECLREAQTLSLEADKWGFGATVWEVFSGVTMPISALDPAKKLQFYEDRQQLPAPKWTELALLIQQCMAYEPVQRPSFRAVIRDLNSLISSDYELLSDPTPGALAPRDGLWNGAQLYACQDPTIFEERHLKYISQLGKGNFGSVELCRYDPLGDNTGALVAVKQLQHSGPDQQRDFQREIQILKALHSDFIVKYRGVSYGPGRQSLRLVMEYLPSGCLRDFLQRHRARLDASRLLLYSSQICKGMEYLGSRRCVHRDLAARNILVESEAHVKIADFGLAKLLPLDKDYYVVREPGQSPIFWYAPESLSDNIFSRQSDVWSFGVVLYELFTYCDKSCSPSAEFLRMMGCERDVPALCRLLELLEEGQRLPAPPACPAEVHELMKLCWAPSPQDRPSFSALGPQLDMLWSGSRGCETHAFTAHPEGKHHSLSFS

[3] = target: Tyrosine-protein kinase JAK1 (Homo sapiens, UniProt P23458)
Tyrosine-protein kinase JAK1, sequence (P23458 whole entry): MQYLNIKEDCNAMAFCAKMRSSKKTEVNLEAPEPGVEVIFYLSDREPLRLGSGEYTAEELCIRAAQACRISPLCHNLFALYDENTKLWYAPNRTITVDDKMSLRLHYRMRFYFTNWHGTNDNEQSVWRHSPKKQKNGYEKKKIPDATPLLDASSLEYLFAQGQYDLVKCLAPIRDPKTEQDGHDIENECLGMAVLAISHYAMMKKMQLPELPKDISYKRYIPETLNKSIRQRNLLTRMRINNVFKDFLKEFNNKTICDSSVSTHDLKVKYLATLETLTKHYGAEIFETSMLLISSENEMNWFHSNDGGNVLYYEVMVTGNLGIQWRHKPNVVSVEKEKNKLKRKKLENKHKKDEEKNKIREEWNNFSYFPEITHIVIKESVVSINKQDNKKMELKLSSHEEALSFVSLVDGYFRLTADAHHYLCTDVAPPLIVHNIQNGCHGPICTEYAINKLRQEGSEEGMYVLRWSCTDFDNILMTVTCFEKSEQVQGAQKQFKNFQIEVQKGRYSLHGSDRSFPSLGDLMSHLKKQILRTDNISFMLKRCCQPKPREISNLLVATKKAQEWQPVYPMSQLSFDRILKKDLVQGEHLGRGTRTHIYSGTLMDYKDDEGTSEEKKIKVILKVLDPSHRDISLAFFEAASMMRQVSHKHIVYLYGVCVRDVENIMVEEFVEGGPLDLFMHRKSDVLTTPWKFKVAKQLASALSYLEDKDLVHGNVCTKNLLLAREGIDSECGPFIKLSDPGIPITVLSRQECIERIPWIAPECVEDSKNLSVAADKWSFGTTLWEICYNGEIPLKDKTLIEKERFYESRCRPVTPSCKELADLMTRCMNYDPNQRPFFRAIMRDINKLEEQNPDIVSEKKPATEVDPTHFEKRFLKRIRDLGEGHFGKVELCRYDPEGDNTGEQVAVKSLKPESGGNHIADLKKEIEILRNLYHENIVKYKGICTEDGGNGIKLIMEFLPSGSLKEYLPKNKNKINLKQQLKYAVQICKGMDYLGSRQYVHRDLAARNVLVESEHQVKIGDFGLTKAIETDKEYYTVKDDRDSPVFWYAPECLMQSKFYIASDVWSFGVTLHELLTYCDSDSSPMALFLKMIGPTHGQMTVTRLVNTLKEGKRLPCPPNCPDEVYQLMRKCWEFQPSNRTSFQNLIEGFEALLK

Non-receptor tyrosine-protein kinase TYK2, sequence (P29597 whole entry): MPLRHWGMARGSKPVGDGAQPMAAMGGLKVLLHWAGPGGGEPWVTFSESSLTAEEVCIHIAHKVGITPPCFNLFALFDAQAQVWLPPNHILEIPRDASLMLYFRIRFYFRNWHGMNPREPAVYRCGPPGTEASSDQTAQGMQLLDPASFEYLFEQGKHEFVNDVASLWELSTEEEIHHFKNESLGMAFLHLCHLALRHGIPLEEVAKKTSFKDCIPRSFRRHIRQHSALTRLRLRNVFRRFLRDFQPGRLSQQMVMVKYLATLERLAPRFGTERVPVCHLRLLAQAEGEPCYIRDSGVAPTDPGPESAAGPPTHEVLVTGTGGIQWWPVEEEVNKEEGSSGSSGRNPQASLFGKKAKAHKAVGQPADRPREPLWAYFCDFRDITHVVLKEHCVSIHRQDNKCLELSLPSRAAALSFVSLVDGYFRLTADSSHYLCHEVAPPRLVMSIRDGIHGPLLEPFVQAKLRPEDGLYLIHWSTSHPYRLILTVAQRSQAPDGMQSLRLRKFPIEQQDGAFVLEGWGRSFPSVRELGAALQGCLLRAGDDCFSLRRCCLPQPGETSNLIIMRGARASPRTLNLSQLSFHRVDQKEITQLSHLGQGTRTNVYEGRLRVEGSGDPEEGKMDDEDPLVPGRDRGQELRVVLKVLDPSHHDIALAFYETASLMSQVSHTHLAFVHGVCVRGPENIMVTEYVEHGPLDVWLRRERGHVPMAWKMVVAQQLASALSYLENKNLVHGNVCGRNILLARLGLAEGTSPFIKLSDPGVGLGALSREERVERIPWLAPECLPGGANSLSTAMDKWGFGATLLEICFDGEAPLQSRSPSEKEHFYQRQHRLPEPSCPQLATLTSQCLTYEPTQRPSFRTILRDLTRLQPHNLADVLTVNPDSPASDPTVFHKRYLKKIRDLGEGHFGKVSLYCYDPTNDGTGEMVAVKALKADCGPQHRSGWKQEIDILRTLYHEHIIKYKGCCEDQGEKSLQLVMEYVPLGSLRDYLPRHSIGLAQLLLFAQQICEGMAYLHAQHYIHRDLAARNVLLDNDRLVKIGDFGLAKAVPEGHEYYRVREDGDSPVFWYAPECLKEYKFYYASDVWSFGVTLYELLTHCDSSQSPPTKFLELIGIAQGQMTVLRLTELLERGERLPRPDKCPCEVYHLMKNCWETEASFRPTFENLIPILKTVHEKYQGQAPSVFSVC

SMILES: O=C1NC(=O)C(c2c[nH]c3ccccc23)=C1Nc1cccc(OC2CCN(c3ccnc(F)c3)CC2)c1
- IC50 [1]: > 10000 nM
- IC50 [2]: 625 nM
- IC50 [3]: 4820 nM

SMILES: O=C1NC(=O)C(c2c[nH]c3ccccc23)=C1Nc1ccc(OCCCNc2ccnc(F)c2)cc1
- IC50 [1]: > 10000 nM
- IC50 [2]: 135 nM
- IC50 [3]: 1060 nM

SMILES: CN(CCOc1cccc(NC2=C(c3c[nH]c4ccccc34)C(=O)NC2=O)c1)c1ccnc(F)c1
- IC50 [1]: 995 nM
- IC50 [2]: 46 nM
- IC50 [3]: > 10000 nM

SMILES: O=C1NC(=O)C(c2c[nH]c3ccccc23)=C1Nc1ccc(OCCn2ccnc2)cc1
- IC50 [1]: 7370 nM
- IC50 [2]: 278 nM
- IC50 [3]: > 10000 nM

SMILES: O=C1NC(=O)C(c2cn(CCCn3ccnc3)c3ccccc23)=C1Nc1ccccc1
- IC50 [1]: 2310 nM
- IC50 [2]: 17 nM
- IC50 [3]: 770 nM

SMILES: CC(C)(O)C(=O)N1CCN(c2ccc(C(F)(F)F)c(C3=C(c4c[nH]c5ccccc45)C(=O)NC3=O)c2)CC1
- IC50 [1]: 1690 nM
- IC50 [3]: 311 nM

SMILES: O=C1NC(=O)C(c2c[nH]c3ccccc23)=C1Nc1cccc(OCCNc2ccnc(F)c2)c1
- IC50 [1]: > 10000 nM
- IC50 [2]: 29 nM
- IC50 [3]: 423 nM

SMILES: O=C1C=C(Nc2cccc(OCCNc3ccnc(F)c3)c2)C(=O)N1
- IC50 [1]: > 10000 nM
- IC50 [2]: > 10000 nM
- IC50 [3]: > 10000 nM

SMILES: O=C1NC(=O)C(c2c[nH]c3ccccc23)=C1Nc1ccc(OCCNc2ccnc(F)c2)cc1
- IC50 [1]: 9840 nM
- IC50 [2]: 201 nM
- IC50 [3]: 2060 nM

SMILES: O=C1NC(=O)C(c2c[nH]c3ccccc23)=C1Nc1cccc(C2CN(c3ccnc(F)c3)C2)c1
- IC50 [1]: > 10000 nM
- IC50 [2]: 576 nM
- IC50 [3]: 11100 nM

SMILES: O=C1NC(=O)C(c2c[nH]c3ccccc23)=C1Nc1cccc(OCCNc2cnccn2)c1
- IC50 [2]: 408 nM

SMILES: O=C1NC(=O)C(c2c[nH]c3ccccc23)=C1Nc1ccc(OCCCn2ccnc2)cc1
- IC50 [1]: > 10000 nM
- IC50 [2]: 1150 nM
- IC50 [3]: 8640 nM

SMILES: O=C1NC(=O)C(c2c[nH]c3ccccc23)=C1Nc1ccccc1OCCn1ccnc1
- IC50 [1]: > 10000 nM
- IC50 [2]: 9370 nM
- IC50 [3]: > 10000 nM

SMILES: O=C1NC(=O)C(c2c[nH]c3ccccc23)=C1Nc1ccccc1OCCNc1ccnc(F)c1
- IC50 [1]: > 10000 nM
- IC50 [2]: > 10000 nM
- IC50 [3]: > 10000 nM

SMILES: O=C1NC(=O)C(c2c[nH]c3ccccc23)=C1Nc1cccc(OCCNc2ccccn2)c1
- IC50 [2]: 1500 nM

SMILES: O=C1NC(=O)C(c2c[nH]c3ccccc23)=C1Nc1cccc(OCCNc2cc(F)cc(F)c2)c1
- IC50 [2]: 1390 nM

SMILES: O=C1NC(=O)C(c2c[nH]c3ccccc23)=C1Nc1cccc(OCCn2ccnc2)c1
- IC50 [1]: > 10000 nM
- IC50 [2]: 1790 nM
- IC50 [3]: > 10000 nM

SMILES: O=C1NC(=O)C(c2c[nH]c3ccccc23)=C1Nc1cccc(OC2CCCN(c3ccnc(F)c3)C2)c1 (racemic)
- IC50 [1]: > 10000 nM
- IC50 [2]: 163 nM
- IC50 [3]: > 10000 nM

SMILES: O=C1NC(=O)C(c2c[nH]c3ccccc23)=C1Nc1cccc(C2CCN(c3ccnc(F)c3)C2)c1 (racemic)
- IC50 [1]: > 10000 nM
- IC50 [2]: > 10000 nM
- IC50 [3]: > 10000 nM

SMILES: O=C1NC(=O)C(c2ccccc2)=C1Nc1cccc(OCCNc2ccnc(F)c2)c1
- IC50 [1]: > 10000 nM
- IC50 [2]: 576 nM
- IC50 [3]: 2170 nM

SMILES: O=C1NC(=O)C(c2c[nH]c3ccccc23)=C1Nc1cccc(OC2CCN(c3ccnc(F)c3)C2)c1 (racemic)
- IC50 [1]: 11900 nM
- IC50 [2]: 12 nM
- IC50 [3]: 564 nM

SMILES: Cn1cc(C2=C(Nc3cccc(OCCNc4ccnc(F)c4)c3)C(=O)NC2=O)c2ccccc21
- IC50 [1]: 5100 nM
- IC50 [2]: 179 nM
- IC50 [3]: 1780 nM

SMILES: O=C1NC(=O)C(c2c[nH]c3ccccc23)=C1Nc1cccc(O[C@H]2CCN(c3ccnc(F)c3)C2)c1
- IC50 [2]: 13 nM
- IC50 [3]: 628 nM

SMILES: O=C1NC(=O)C(c2c[nH]c3ccccc23)=C1Nc1cccc(OCCNc2ccccc2)c1
- IC50 [2]: 1380 nM

SMILES: O=C1NC(=O)C(c2c[nH]c3ccccc23)=C1Nc1cccc(O[C@@H]2CCN(c3ccnc(F)c3)C2)c1
- IC50 [1]: > 10000 nM
- IC50 [2]: 497 nM
- IC50 [3]: 4900 nM

SMILES: O=C1NC(=O)C(c2c[nH]c3ccccc23)=C1Nc1cccc(C2CCN(c3ccnc(F)c3)CC2)c1
- IC50 [1]: > 10000 nM
- IC50 [2]: > 10000 nM
- IC50 [3]: > 10000 nM

SMILES: O=C1NC(=O)C(c2c[nH]c3ccccc23)=C1Nc1cccc(OCCCn2ccnc2)c1
- IC50 [1]: > 10000 nM
- IC50 [2]: 128 nM
- IC50 [3]: 300 nM

SMILES: O=C1NC(=O)C(c2c[nH]c3ccccc23)=C1Nc1cccc(OC2CN(c3ccnc(F)c3)C2)c1
- IC50 [1]: > 10000 nM
- IC50 [2]: 200 nM
- IC50 [3]: 4100 nM
